From PubChem BioAssay AID1996 come the findings set out here.

SMILES strings stand for the structures. Values after ≈ are worked out from the molar mass of the structure shown.

For this series the following is noted: buffer; pH 7.4; 200.0 µM.
Broadly, the kinetic solubility is solubility judged after dilution from a stock solution rather than from solid. Compound `Cc1ccc(S(=O)(=O)N2CCC(C(=O)NCc3ccccc3CN3CCCC3)CC2)cc1` gave a solubility (kinetic) of 66.3 µg/mL (≈ 146 µM).
Next, `CCCN1CCC(NC(=S)Nc2ccc(OC)c(OC)c2)CC1`: > 50.6 µg/mL; `O=C1C[C@H](NC(=O)OCc2ccccc2)CO1`: > 35.3 µg/mL.
For `CCOc1ccccc1NS(=O)(=O)c1ccc2[nH]c(=O)[nH]c2c1`, the kinetic solubility was > 50 µg/mL.
The compound `CCOC(=O)c1c(NC(=O)C2CCCO2)sc(C)c1C` (stereo not given) came in with a solubility (kinetic) of 30 µg/mL (≈ 101 µM).
For `CC(C)(C)C(=O)OC/C(N)=N/OC(=O)c1ccc(Cl)cc1`, the solubility (kinetic) was determined as 1.6 µg/mL (≈ 5.12 µM).
Next, `Cc1cccc(NS(=O)(=O)Cc2ccccc2)c1C`: 35.6 µg/mL (≈ 129 µM).
Regarding `CN(C(=O)c1ccc2nc(N)sc2c1)c1ccccc1`, the solubility (kinetic) worked out at 40.8 µg/mL (≈ 144 µM).
On to `Cn1cc(C=O)c2cc(F)ccc21`, for which the solubility (kinetic) was > 26.6 µg/mL.
For the compound `O=C(NC1CCCCCCC1)c1cc(-c2ccccn2)nc2ccccc12`, the solubility (kinetic) is < 0.3 µg/mL.
Next, `Brc1ccccc1C1N=C(c2ccccc2)NO1` (stereo not given): 10.5 µg/mL (≈ 34.6 µM); `COc1ccc(NC(=S)NC(=O)c2cccnc2)cc1`: 15.5 µg/mL (≈ 53.9 µM).
Compound `CCN(C(=S)NC(=O)Cc1ccc(OC)cc1)c1ccccc1` displayed a solubility (kinetic) of 48.9 µg/mL (≈ 149 µM).
In the case of `O=Cc1c(C(=O)O)n(Cc2ccccc2F)c2ccccc12`, the kinetic solubility was > 44.6 µg/mL.
`CCOc1ccc(-c2csc(NC(=O)c3ccco3)n2)cc1` displayed a kinetic solubility of 2.6 µg/mL (≈ 8.27 µM).
For the compound `O=C(CC1C(=O)NCCN1Cc1cccc(F)c1)NC1CCC1` (stereo not given), the solubility (kinetic) stood at 42 µg/mL (≈ 132 µM).
With `O=C(COC(=O)CCC(=O)c1ccc(F)cc1)NC1CCCCC1`, the kinetic solubility is > 50.3 µg/mL.
Next, `Cc1ccc(CN(C)C(=O)c2ccccc2Sc2ccccc2C#N)cc1`: 14.7 µg/mL (≈ 39.5 µM); `Cc1ccc(NC(=O)Nc2cccnc2)cc1Cl`: 23.3 µg/mL (≈ 89 µM); `CC(CCc1ccccc1)NCC#N.Cl` (stereo not given): 31.1 µg/mL.
`COc1cc2ccccc2cc1C(=O)NC1CCCCC1` yielded a solubility (kinetic) of 25.3 µg/mL (≈ 89.3 µM).
In turn, `CSc1ncccc1C(=O)NCCc1ccccc1` returned a kinetic solubility of 37.2 µg/mL (≈ 137 µM).
The compound `Cc1cc(C)c(C#N)c(OCc2ccc(Cl)nc2)n1` registered a solubility (kinetic) of 8.5 µg/mL (≈ 31.1 µM).
As for `CC1CCN(C(=S)NC(=O)c2cccc([N+](=O)[O-])c2)CC1`, the solubility (kinetic) was determined as 34.2 µg/mL (≈ 111 µM).
Next, `COc1ccccc1C(=O)COC(=O)COc1ccc(C#N)cc1`: > 48.8 µg/mL; `Cc1ccccc1NC(=S)NCc1ccc(F)cc1`: > 41.2 µg/mL.
As to `COc1ccc(C(=O)c2c[nH]c(C(=O)N=CN(C)C)c2)cc1`, the kinetic solubility came to 42 µg/mL (≈ 140 µM).
As for `Cl.O=C(NCCCN1CCOCC1)c1cc(S(=O)(=O)N2CCOCC2)ccc1Cl`, the kinetic solubility was > 70.3 µg/mL.
Take `Cc1cc(C)c(C(=O)N(C)C2CCCN(Cc3ccccc3F)C2)o1` (stereo not given): the kinetic solubility was > 51.7 µg/mL.
Next, `Cc1cc(C)c2[nH]c(C)c(CN3CCCCCC3)c(=O)c2c1`: > 44.8 µg/mL; `COc1cccc(CC(CC(=O)O)C(=O)Nc2cc(C)ccc2C)c1` (stereo not given): 35.7 µg/mL (≈ 105 µM).
Take `O=S(=O)(c1ccc2c(c1)CCN2)N1CCCC1`: the solubility (kinetic) was 36.1 µg/mL (≈ 143 µM).
Next, `C=CCn1c(=O)c2c(nc3n2CCCN3Cc2ccccc2)n(C)c1=O`: 19.5 µg/mL (≈ 55.5 µM).
In the case of `O=C(CCCc1ccccc1)NCCc1ccccc1`, the kinetic solubility was 29.3 µg/mL (≈ 110 µM).
The compound `Cn1c(=O)c2c([nH]c(=S)n2CCCc2ccccc2)n(C)c1=O` displayed a solubility (kinetic) of 35.8 µg/mL (≈ 108 µM).
For `COc1cccc(CNC(=O)N2CCN(c3ccccc3C)CC2)c1`, the solubility (kinetic) turned out to be 15.3 µg/mL (≈ 45.1 µM).
As for `COc1ccc(CN2CCN(C(=O)c3ccc4c(c3)CCC4)CC2)cc1OC`, the kinetic solubility turned out to be 39.5 µg/mL (≈ 104 µM).
Under `CSc1ncc(C(=O)Nc2cc(C)ccc2C)c(C)n1` stands > 43.1 µg/mL; under `O=C(CC1Sc2ccccc2NC1=O)NCc1ccccc1` (stereo not given), 0.4 µg/mL (≈ 1.28 µM).
`CC1CC2(CCCC2)N(C(=O)N(C)C)c2ccc(F)cc21` (stereo not given) had a solubility (kinetic) of 10.5 µg/mL (≈ 36.2 µM).
`O=C1OC(C(=O)Nc2ccccc2)Cc2ccccc21` (stereo not given) returned a solubility (kinetic) of 10.9 µg/mL (≈ 40.8 µM).
Under `Br.O=C(CN1CCCCC1)c1ccccc1F` stands > 45.3 µg/mL.
Take `O=C(NCc1ccco1)c1ccccc1`: the kinetic solubility is > 30.2 µg/mL.
Under `O=C(COC(=O)/C=C/c1ccccc1)NC1CCCCCC1` stands 10.4 µg/mL (≈ 34.5 µM).
In the case of `COc1ccc2c(c1OC)C(=O)OC2Nc1nc2ccccc2s1` (stereo not given), the kinetic solubility came to 50.4 µg/mL (≈ 147 µM).
Regarding `O=C(NCCc1csc(-c2ccccc2)n1)c1ccco1`, the solubility (kinetic) was found to be 42.4 µg/mL (≈ 142 µM).
On to `Brc1ccc2ncnc(NCc3cccnc3)c2c1`, for which the solubility (kinetic) worked out at 34.3 µg/mL (≈ 109 µM).
`COCn1cnc(-c2ccccc2)c1-c1ccccc1`: the kinetic solubility turned out to be 32.5 µg/mL (≈ 123 µM).
`CCOc1ccc(NC(=O)Nc2nc(SCC)ns2)cc1` returned a solubility (kinetic) of 0.8 µg/mL (≈ 2.47 µM).
Next, `Cc1ccccc1N1CCN(C(=O)NCc2cccc(Cl)c2)CC1`: 3.3 µg/mL (≈ 9.6 µM); `COC(=O)c1c(C)oc(C)c1S(=O)(=O)N1CCCC1`: 38.3 µg/mL (≈ 133 µM); `COc1ccccc1N1C(=O)S/C(=C\c2cccs2)C1=O`: < 0.7 µg/mL.
Under `O=c1oc2ccccc2c(NCCO)c1[N+](=O)[O-]` stands > 37.5 µg/mL; under `O=C(CSc1ccccc1Cl)N1CCOCC1`, > 40.8 µg/mL; under `COc1ccccc1CNC(=O)c1cc(=O)c2ccccc2o1`, 10.8 µg/mL (≈ 34.9 µM).
Take `O=C(CCS(=O)(=O)c1ccccc1)Nc1nncs1`: the solubility (kinetic) was > 44.6 µg/mL.
With `O=C(Nc1nsc(-c2ccccc2)n1)c1ccc(F)cc1`, the solubility (kinetic) turned out to be 32.2 µg/mL (≈ 108 µM).
Consider `Cc1c(NC(=O)c2cc(S(=O)(=O)N3CCCCC3)ccc2Cl)c(=O)n(-c2ccccc2)n1C`, for which the solubility (kinetic) was > 73.3 µg/mL.
`O=C(Nc1ccc(OC(F)(F)F)cc1)c1ccc2nc[nH]c2c1`: the solubility (kinetic) was determined as 14.9 µg/mL (≈ 46.4 µM).
In the case of `COc1cccc(NC(=O)COC(=O)CCC2CCCC2)c1`, the kinetic solubility is > 45.8 µg/mL.
Take `CC[C@H](C)[C@H](NC(N)=O)C(=O)NCCc1ccc(OC)cc1`: the kinetic solubility is > 46.1 µg/mL.
For the compound `Cc1ccc(/C=C/C(=O)NCc2cccs2)c(C)c1`, the kinetic solubility is < 0.6 µg/mL.
For `C/C(=N\NC(=O)c1ccncc1)c1cccnc1`, the solubility (kinetic) was > 36 µg/mL.
In turn, `CCCn1c(=O)c(Br)cn(-c2ccccc2C)c1=O` showed a solubility (kinetic) of 48.2 µg/mL (≈ 149 µM).
Under `COc1ccc2c(c1)CC/C(=C/c1ccccn1)C2=O` stands 38.5 µg/mL (≈ 145 µM); under `O=C(O)C1Cc2ccccc2CN1C(=O)c1ccco1` (stereo not given), 30.7 µg/mL (≈ 113 µM).
Under `COc1ccccc1CNC(=O)c1cccnc1` stands > 36.3 µg/mL; under `CC(=O)Nc1ccc(N2C(=O)C3C4C=CC(CC4)C3C2=O)cc1` (stereo not given), > 46.6 µg/mL; under `Cc1csc(NC(=O)CSc2ccc([N+](=O)[O-])cn2)n1`, 33.8 µg/mL (≈ 109 µM).
With `CC1C(=O)C(C)C(c2ccc(O)cc2)NC1c1ccc(O)cc1` (stereo not given), the kinetic solubility is 45.4 µg/mL (≈ 146 µM).
`Cc1nc(SCC(=O)Nc2cccc(S(=O)(=O)N3CCOCC3)c2)nc(C)c1C` registered a solubility (kinetic) of 29.5 µg/mL (≈ 67.6 µM).
Next, `CCOC(=O)C(=O)NCC(c1ccco1)S(=O)(=O)c1cccs1` (stereo not given): > 53.6 µg/mL; `CSc1nc([O-])cc(=O)n1-c1ccc(F)cc1.[K+]`: > 43.6 µg/mL.
Regarding `O=[N+]([O-])c1cccc(Nc2c([N+](=O)[O-])ccc3nonc23)c1`, the kinetic solubility is < 0.1 µg/mL.
For `Cc1ccc(S(=O)(=O)Nc2ccccc2C(O)c2ccccc2)cc1` (stereo not given), the kinetic solubility was found to be 6.1 µg/mL (≈ 17.3 µM).
Compound `Cc1ccc(NC(=S)NC(=O)C2CCCC2)cc1C` showed a kinetic solubility of 0.5 µg/mL (≈ 1.81 µM).
`CCOC(=O)c1c(C)[nH]c(C(=O)COC(=O)C2CC2)c1C` showed a solubility (kinetic) of 7.8 µg/mL (≈ 26.6 µM).
In the case of `Cc1ccc(C)c(C(=O)COc2ncnc3ccccc23)c1`, the kinetic solubility stood at 9.2 µg/mL (≈ 31.5 µM).
As for `Cc1ccc2cc(CNCCc3ccccc3C)c(=O)[nH]c2c1`, the solubility (kinetic) is 40.7 µg/mL (≈ 133 µM).
Turning to `Cc1ccc(C(C)C)c(OCCCn2ccnc2C)c1.O=C(O)C(=O)O`, the kinetic solubility worked out at 51.2 µg/mL.
For the compound `O=C(CN1C(=O)C2CCCCC2C1=O)Nc1cccc(C(F)(F)F)c1` (stereo not given), the kinetic solubility was > 53.1 µg/mL.
Compound `Cc1ccc(NC(=O)COC(=O)CCNS(=O)(=O)c2c(Cl)cccc2Cl)cc1` yielded a solubility (kinetic) of 48.5 µg/mL (≈ 109 µM).
Turning to `CCN(CC(=O)Nc1ccc(NC(C)=O)cc1)C(=O)c1ccc(=O)[nH]c1`, the kinetic solubility came out at 50.4 µg/mL (≈ 141 µM).
Regarding `Cc1ccc(CSc2nc(N)cc(=O)[nH]2)cc1`, the kinetic solubility amounted to 13.1 µg/mL (≈ 53 µM).
Next, `COc1ccc(CCNC2CC(=O)N(C3CCCCC3)C2=O)cc1OC` (stereo not given): 46.4 µg/mL (≈ 129 µM).
`O=C1C=C(NCCOC23CC4CC(CC(C4)C2)C3)C2(CCCCC2)O1` displayed a solubility (kinetic) of 4 µg/mL (≈ 11.6 µM).
`CSc1ccccc1NC(=O)C1CC(c2ccccc2Cl)=NO1` (stereo not given) gave a kinetic solubility of 0.8 µg/mL (≈ 2.31 µM).
For `Fc1cccc(CN2CCSCC2)c1`, the solubility (kinetic) worked out at 6.3 µg/mL (≈ 29.8 µM).
Under `O=C(CN1C(=O)NC2(CCCC2)C1=O)Nc1cccc(Cl)c1` stands > 48.3 µg/mL; under `Cc1ccc(CNC(=O)CSc2nc(C)cs2)cc1`, > 43.9 µg/mL; under `CN1OC[C@@H]2COc3ccc4ccccc4c3[C@@H]21`, 33.1 µg/mL (≈ 137 µM).
For `COc1cccc(OC)c1C(=O)Nc1cccnc1`, the solubility (kinetic) was > 38.7 µg/mL.
For `CCCCCCNc1c([N+](=O)[O-])c(=O)sc2ccccc12`, the kinetic solubility stood at 4.4 µg/mL (≈ 14.4 µM).
Regarding `COc1ccc(-c2cc(C(F)(F)F)nc(-n3ccnc3)n2)cc1`, the kinetic solubility came out at 0.6 µg/mL (≈ 1.87 µM).
As for `COc1ccc(NC(=O)c2cc3ccccc3cc2OC)cc1`, the solubility (kinetic) was 5.9 µg/mL (≈ 19.2 µM).
On to `CN1C(=O)c2ccc(C(=O)NCc3ccco3)cc2C1=O`, for which the solubility (kinetic) was > 42.6 µg/mL.
In the case of `CC(C)c1onc(C(=O)Nc2cccc(O)c2)c1[N+](=O)[O-]`, the kinetic solubility came out at 37.4 µg/mL (≈ 128 µM).
Consider `CC1CCN(C(=O)CSc2nc3ccccc3c(=O)[nH]2)CC1`, for which the solubility (kinetic) was > 47.6 µg/mL.
In the case of `COc1ccc(C(=O)NCCCN2CCOCC2)cc1`, the kinetic solubility is > 41.8 µg/mL.
Turning to `Cc1ccc(S(=O)(=O)NCC(C)NC(=O)CN2CCOCC2)cc1` (stereo not given), the kinetic solubility was > 53.3 µg/mL.
In the case of `O=C(Nc1nccs1)c1ccc(-c2ccc(F)cc2)o1`, the kinetic solubility was found to be 1.5 µg/mL (≈ 5.2 µM).
As for `OC(CNCc1ccccc1)(c1ccccc1)c1ccccc1`, the solubility (kinetic) was > 45.5 µg/mL.
Under `CC(C)(C)c1ccc(C(=O)OCCN2CCCCC2)cc1.Cl` stands 46 µg/mL; under `CCOC(=O)CCn1cnc2ccc([N+](=O)[O-])cc2c1=O`, 25.2 µg/mL (≈ 86.5 µM); under `CCOC(=O)c1csc(-c2sccc2Br)n1`, 18.7 µg/mL (≈ 58.8 µM).
